These results are taken from patent US5945539A, “Oxazole derivatives and use thereof” (Japan Tobacco, Inc., priority 1994, dated 1999).

For orientation: IC50 means the concentration that gives 50% inhibition. Lower therefore signals greater potency. By inhibition is commonly meant how much of the control response was suppressed.

Like-named read-outs stand apart in the source and are kept apart here. Bounds are passed on as bounds.

One data set addresses T1, cyclooxygenase-2 (COX-2) (Ovis aries, UniProt P79208).
T1 sequence (P79208 17-603): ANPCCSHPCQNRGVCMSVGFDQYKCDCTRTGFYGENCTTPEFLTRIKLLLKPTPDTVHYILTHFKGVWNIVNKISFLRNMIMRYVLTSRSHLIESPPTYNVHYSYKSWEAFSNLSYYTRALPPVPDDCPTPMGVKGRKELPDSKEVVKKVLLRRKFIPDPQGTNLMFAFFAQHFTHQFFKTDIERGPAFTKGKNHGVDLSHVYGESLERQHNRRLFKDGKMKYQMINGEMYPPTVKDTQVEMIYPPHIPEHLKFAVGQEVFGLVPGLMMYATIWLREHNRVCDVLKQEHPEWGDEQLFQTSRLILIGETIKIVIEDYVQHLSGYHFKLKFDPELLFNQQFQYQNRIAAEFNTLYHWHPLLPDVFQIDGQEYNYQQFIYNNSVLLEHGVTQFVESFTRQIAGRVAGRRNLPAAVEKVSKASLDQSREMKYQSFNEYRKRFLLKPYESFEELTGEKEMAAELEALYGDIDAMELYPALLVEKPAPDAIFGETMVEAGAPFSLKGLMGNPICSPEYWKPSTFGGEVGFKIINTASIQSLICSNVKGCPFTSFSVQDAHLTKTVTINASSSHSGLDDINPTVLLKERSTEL
The data set is described as follows: inhibitory activity on cyclooxygenase-2 (Experimental Example 1-1, sheep placenta solubilized fraction). The data set is classed as biochemical. Particulars: for IC50: sheep placenta COX-2, pH 8, 24° C.; for inhibition at 100 µM: sheep placenta COX-2, inhibition at 100 μM test compound.

Data set [1] deals with T2, human cyclooxygenase-2 (COX-2) (Homo sapiens, UniProt P35354).
T2 construct: made in house
T2 sequence (P35354 18-604): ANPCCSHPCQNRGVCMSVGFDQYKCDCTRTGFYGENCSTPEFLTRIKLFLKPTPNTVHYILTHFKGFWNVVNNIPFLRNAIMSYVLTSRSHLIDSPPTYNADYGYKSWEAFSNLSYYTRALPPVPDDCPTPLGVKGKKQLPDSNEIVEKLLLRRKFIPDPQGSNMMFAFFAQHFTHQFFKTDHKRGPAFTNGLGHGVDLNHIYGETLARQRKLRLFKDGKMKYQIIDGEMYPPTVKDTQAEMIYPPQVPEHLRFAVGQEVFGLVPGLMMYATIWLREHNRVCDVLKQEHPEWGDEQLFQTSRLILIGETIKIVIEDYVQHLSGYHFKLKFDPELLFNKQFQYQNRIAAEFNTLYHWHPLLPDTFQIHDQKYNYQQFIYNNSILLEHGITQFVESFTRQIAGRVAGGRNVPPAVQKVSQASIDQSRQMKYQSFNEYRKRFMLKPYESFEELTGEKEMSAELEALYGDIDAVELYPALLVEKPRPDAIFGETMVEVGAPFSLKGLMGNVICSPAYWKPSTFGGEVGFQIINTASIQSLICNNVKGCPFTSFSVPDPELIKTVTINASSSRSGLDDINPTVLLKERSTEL
The data set is described as follows: inhibitory activity on cyclooxygenase-2 (Experimental Example 1-2, human COX-2 expressed by yeast). It counts as biochemical.
Protocol: (§1) That is, a test sample (20 μl), an enzyme solution (20 μl) and distilled water (10 μl) were added to 100 mM Tris-HCl buffer (pH 8, 140 μl) containing hematin (2 μM) and tryptophan (5 mM), and the mixture was thoroughly stirred, which was followed by preincubation at 24° C. for 5 minutes. Then, a ^1 4 C arachidonic acid solution (10 μl) was added and the mixture was reacted at 24° C., whereafter a solution (40 μl) of ethyl ether/methanol/1 M citric acid (30/4/1) ice-cooled to -20° C. was added to stop the reaction.

For data set [2], the system named is carrageenin-induced paw edema. The data set is described as follows: effects on carrageenin-induced paw edema in rats (Experimental Example 2). It counts as in vivo, male Donryu rats. The conditions noted are these: Rattus norvegicus, po, 3 h. Here is the method: Carrageenin (1%, 0.05 ml) dissolved in physiological saline was subcutaneously injected to the left hind paw of male Donryu rats to induce paw edema. The degree of paw edema was evaluated by measuring the volume of the paw 3 hours after carrageenin administration. […] Inhibitory activity was expressed by the dose (ED30) of the test compound necessary for inhibiting by 30% relative to the control group.

Data set [3] deals with T3, cyclooxygenase-1 (COX-1) (Homo sapiens, UniProt P23219).
T3 construct: an enzyme prepared from human platelets; from tissue; host or cells: human platelets
The data set is described as follows: inhibitory activity on cyclooxygenase-1 (Experimental Example 1-2, enzyme prepared from human platelets). The conditions noted are these: COX-1 prepared from human platelets. The data set is classed as biochemical.
Protocol: as §1

Data set [4] deals with T4, cyclooxygenase-1 (COX-1) (Ovis aries, UniProt P05979).
T4 sequence (P05979 25-600): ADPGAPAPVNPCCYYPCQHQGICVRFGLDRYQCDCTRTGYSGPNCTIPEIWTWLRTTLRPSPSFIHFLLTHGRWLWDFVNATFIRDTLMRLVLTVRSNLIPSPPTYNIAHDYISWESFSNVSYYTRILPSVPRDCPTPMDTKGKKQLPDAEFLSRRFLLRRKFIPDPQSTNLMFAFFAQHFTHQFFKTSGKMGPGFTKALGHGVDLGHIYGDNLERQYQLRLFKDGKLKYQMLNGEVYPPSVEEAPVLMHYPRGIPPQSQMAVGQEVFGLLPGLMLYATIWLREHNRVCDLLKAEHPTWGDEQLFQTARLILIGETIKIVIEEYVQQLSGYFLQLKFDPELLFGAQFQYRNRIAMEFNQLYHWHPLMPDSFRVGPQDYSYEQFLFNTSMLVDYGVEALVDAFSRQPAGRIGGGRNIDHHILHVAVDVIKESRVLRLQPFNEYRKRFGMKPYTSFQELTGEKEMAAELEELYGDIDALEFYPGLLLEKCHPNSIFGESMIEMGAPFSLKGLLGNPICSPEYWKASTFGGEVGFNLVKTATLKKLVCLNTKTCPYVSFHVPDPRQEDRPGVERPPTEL
The data set is described as follows: inhibitory activity on cyclooxygenase-1 (Experimental Example 1-1, sheep seminal vesicle microsome fraction). The data set is classed as biochemical. Particulars: for IC50: sheep seminal vesicle COX-1, pH 8, 24° C.; for inhibition at 100 µM: sheep seminal vesicle COX-1, inhibition at 100 μM test compound.
Protocol: as §1

The nature of data set [5]: effects on gastric ulcer formation in rats (Experimental Example 3). Particulars: rat, in vivo. Also on record: species or system male Donryu rats. Here is the method: A test compound (100 mg/kg) was orally administered (10 ml/kg) to male Donryu rats. Six hours later, the stomach of the rats was exposed and fixed with 0.1% formalin. The stomach was opened and the degree of ulcer formation was evaluated.

T3 sequence (P23219 24-599): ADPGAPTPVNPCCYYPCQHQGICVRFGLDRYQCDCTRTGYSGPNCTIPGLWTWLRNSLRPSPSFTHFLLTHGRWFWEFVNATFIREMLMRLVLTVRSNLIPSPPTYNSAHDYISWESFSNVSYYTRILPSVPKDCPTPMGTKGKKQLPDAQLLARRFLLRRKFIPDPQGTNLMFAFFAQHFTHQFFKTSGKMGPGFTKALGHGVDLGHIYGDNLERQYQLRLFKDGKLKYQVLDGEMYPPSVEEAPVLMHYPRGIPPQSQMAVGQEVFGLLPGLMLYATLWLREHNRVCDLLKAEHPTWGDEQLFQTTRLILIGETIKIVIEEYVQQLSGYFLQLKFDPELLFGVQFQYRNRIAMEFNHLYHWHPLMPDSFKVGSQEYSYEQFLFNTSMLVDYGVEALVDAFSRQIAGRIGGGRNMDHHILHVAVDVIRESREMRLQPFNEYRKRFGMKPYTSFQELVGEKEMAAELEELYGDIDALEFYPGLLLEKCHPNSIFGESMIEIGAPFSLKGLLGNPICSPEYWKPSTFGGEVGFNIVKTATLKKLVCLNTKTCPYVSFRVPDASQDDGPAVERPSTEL

Take `Cc1nc(-c2ccc(C)s2)c(-c2ccc(S(C)(=O)=O)cc2)o1` [2(A), 5-(4-methylsulfonylphenyl)-2-methyl-4-(5-methyl-2-thienyl)oxazole]: the IC50 against cyclooxygenase-2 (COX-2) worked out at 0.4 µM; in data set [1] it was 0.04 µM; against cyclooxygenase-1 (COX-1) [3], 47.5 µM; at cyclooxygenase-1 (COX-1) [4], 50 µM. Also, the ED30 in data set [2] came out at 10.8 mg/kg. Also, the TD50 at 6 h in data set [5] (po) was more than 100 mg/kg.
On to `Cc1nc(-c2ccc(S(C)(=O)=O)cc2)c(-c2ccc(C)s2)o1` [2(B), 4-(4-methylsulfonylphenyl)-2-methyl-5-(5-methyl-2-thienyl)oxazole], for which half-maximal inhibition at cyclooxygenase-2 (COX-2) (IC50) required 80 µM. The compound further yielded an inhibition at 100 µM on cyclooxygenase-1 (COX-1) [4] of 10%.
`Cc1nc(-c2ccc(Cl)s2)c(-c2ccc(S(C)(=O)=O)cc2)o1` [10(A), 4-(5-chloro-2-thienyl)-2-methyl-5-(4-methylsulfonylphenyl)oxazole]: the IC50 turned out to be 0.2 µM against cyclooxygenase-2 (COX-2), 0.03 µM in data set [1] and 12.5 µM against cyclooxygenase-1 (COX-1) [3]. The compound also gave an ED30 in data set [2] of 5.4 mg/kg. The compound further displayed an inhibition at 100 µM at cyclooxygenase-1 (COX-1) [4] of 13%. The compound also yielded a TD50 at 6 h in data set [5] (po) of more than 100 mg/kg.
`Cc1nc(-c2ccc(S(C)(=O)=O)cc2)c(-c2ccc(Cl)s2)o1` [10(B), 5-(5-chloro-2-thienyl)-2-methyl-4-(4-methylsulfonylphenyl)oxazole] came in with an IC50 at cyclooxygenase-2 (COX-2) of 30 µM. Moreover, 100 µM produced 57% inhibition against cyclooxygenase-1 (COX-1) [4].
Consider `Cc1nc(-c2cccs2)c(-c2ccc(S(C)(=O)=O)cc2)o1` [11(A), 5-(4-methylsulfonylphenyl)-2-methyl-4-(2-thienyl)oxazole], for which, on cyclooxygenase-2 (COX-2), it took 50 µM to reach half-maximal inhibition (IC50). Besides, the ED30 in data set [2] stood at 9.5 mg/kg. This compound also had an inhibition at 100 µM at cyclooxygenase-1 (COX-1) [4] of 14%.
As for `Cc1nc(-c2ccc(S(C)(=O)=O)cc2)c(-c2cccs2)o1` [11(B), 4-(4-methylsulfonylphenyl)-2-methyl-5-(2-thienyl)oxazole], the inhibition at 100 µM against cyclooxygenase-2 (COX-2) came out at 2%; against cyclooxygenase-1 (COX-1) [4] it was 6%.
In the case of `Cc1nc(C2CCCCC2)c(-c2ccc(S(C)(=O)=O)cc2)o1` [Example 1, 4-Cyclohexyl-2-methyl-5-(4-methylsulfonylphenyl)oxazole], the ED30 in data set [2] was found to be 5.4 mg/kg. Further, the inhibition at 100 µM on cyclooxygenase-1 (COX-1) [4] is 11%. Moreover, the TD50 at 6 h in data set [5] (po) is more than 100 mg/kg.
At cyclooxygenase-2 (COX-2), `CCc1nc(C2CCCCC2)c(-c2ccc(S(C)(=O)=O)cc2)o1` [Example 3, 4-Cyclohexyl-2-ethyl-5-(4-methylsulfonylphenyl)oxazole] had an IC50 of less than 1 µM. At cyclooxygenase-1 (COX-1) [4], the inhibition at 100 µM turned out to be 18%.
`Cc1nc(C2CCC(C)CC2)c(-c2ccc(S(C)(=O)=O)cc2)o1` (centres unmarked) [Example 4, 5-(4-methylsulfonylphenyl)-2-methyl-4-(4-methylcyclohexyl)oxazole]: the IC50 is 4 µM against cyclooxygenase-2 (COX-2) and more than 100 µM against cyclooxygenase-1 (COX-1) [3]. The inhibition at 100 µM at cyclooxygenase-1 (COX-1) [4] was 26%.
As to `CC1=CCC(c2nc(C)oc2-c2ccc(S(C)(=O)=O)cc2)CC1` (centres unmarked) [Example 5], the IC50 against cyclooxygenase-2 (COX-2) was 10 µM. Further, the inhibition at 100 µM on cyclooxygenase-1 (COX-1) [4] was found to be 5%.
`Cc1nc(C2CCCC2)c(-c2ccc(S(C)(=O)=O)cc2)o1` [Example 6, 4-cyclopentyl-2-methyl-5-(4-methylsulfonylphenyl)oxazole] showed an inhibition at 100 µM on cyclooxygenase-2 (COX-2) of 18%. Besides, the IC50 against cyclooxygenase-1 (COX-1) [4] is 50 µM.
At cyclooxygenase-1 (COX-1) [4], `Cc1nc(C2CCCCCC2)c(-c2ccc(S(C)(=O)=O)cc2)o1` [Example 7, 4-cycloheptyl-2-methyl-5-(4-methylsulfonylphenyl)oxazole] had an IC50 of 2 µM.
Take `Cc1nc(-c2ccco2)c(-c2ccc(S(C)(=O)=O)cc2)o1` [Example 8, 4-(2-furyl)-2-methyl-5-(4-methylsulfonylphenyl)oxazole]: the inhibition at 100 µM on cyclooxygenase-2 (COX-2) and against cyclooxygenase-1 (COX-1) [4] was 7% each time.
Turning to `Cc1nc(-c2ccsc2)c(-c2ccc(S(C)(=O)=O)cc2)o1` [Example 9, 5-(4-methylsulfonylphenyl)-2-methyl-4-(3-thienyl)oxazole], the inhibition at 100 µM turned out to be 35% against cyclooxygenase-2 (COX-2) and 2% on cyclooxygenase-1 (COX-1) [4].
Take `CS(=O)(=O)c1ccc(-c2oc(-c3ccccc3)nc2C2CCCCC2)cc1` [Example 12, 2-phenyl-4-cyclohexyl-5-(4-methylsulfonylphenyl)oxazole, reference compound]: at cyclooxygenase-2 (COX-2), the inhibition at 100 µM is 16%. In addition, the IC50 against cyclooxygenase-1 (COX-1) [4] is more than 100 µM.
Take `Cc1nc(-c2ccc(Cl)s2)c(-c2ccc(S(N)(=O)=O)cc2)o1` [Example 13, 5-(4-Aminosulfonylphenyl)-4-(5-chloro-2-thienyl)-2-methyloxazole]: the IC50 in data set [1] was 0.02 µM; against cyclooxygenase-1 (COX-1) [3] it was 0.6 µM.
In the case of `Cc1nc(C2CCCCC2)c(-c2ccc(S(N)(=O)=O)cc2)o1` [Example 14, 5-(4-Aminosulfonylphenyl)-4-cyclohexyl-2-methyloxazole], the values for the IC50 (on cyclooxygenase-2 (COX-2); in data set [1]; at cyclooxygenase-1 (COX-1) [4]) were 1.5 µM, 0.07 µM and more than 100 µM, respectively. Besides, in data set [2], the ED30 came to 4.5 mg/kg. In addition, the TD50 at 6 h in data set [5] (po) was more than 100 mg/kg.
The compound `CNS(=O)(=O)c1ccc(-c2oc(C)nc2C2CCCCC2)cc1` [Example 15, 4-Cyclohexyl-2-methyl-5-(4-methylaminosulfonylphenyl)oxazole] registered an IC50 in data set [1] of 4 µM. In other words, the single-digit micromolar range.
`COc1ccc2c(c1)c(CC(=O)O)c(C)n2C(=O)c1ccc(Cl)cc1` [indomethacin, reference compound]: in data set [2], the ED30 came to 2.9 mg/kg. Besides, in data set [5] (oral, stomach examined six hours later, read-out: gastric ulcer formation in rats), the TD50 at 6 h was 10 mg/kg.
